≈ marks a conversion by molar mass, not a printed value. Like-named read-outs stand apart in the source and are kept apart here.
How the values were obtained:
[1] = tested on: Collectotrichum graminicola (Cg); experiment: In vitro pathogen growth inhibition assay, Cg; format: cell-based; conditions: 48 h
Outline: (§1)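 Spores in 17% V8 liquid medium, or 1.5 mm Rs mycelial plugs in ¼ PDB, incubated with compound; final concentration checked by OD600 for precipitation. OD readings at 24 and 48 h, blank-subtracted, plus visual ratings; value is concentration giving ≥90% growth inhibition.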

Septoria tritici (St) = experiment: In vitro pathogen growth inhibition assay, St; format: cell-based; conditions: Zymoseptoria tritici, 48 h
Outline: as §1

[2] = tested on: Fusarium moniliforme (Fm); experiment: In vitro pathogen growth inhibition assay, Fm; format: cell-based; conditions: Fusarium verticillioides
Outline: as §1

Rhizoctonia solani (Rs) = experiment: In vitro pathogen growth inhibition assay, Rs (mycelial plugs); format: cell-based; conditions: for IC90: Rhizoctonia solani, 48 h
Outline: (§2)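 Value reported is the compound concentration reaching ≥90% growth inhibition, from OD readings at 24 and 48 h after blank subtraction, confirmed visually. Inoculum was spores diluted in 17% V8 medium, except Rs, using 1.5 mm mycelial plugs in ¼ PDB; actual compound concentration corrected via OD600.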

Puccinia triticina = experiment: Foliar protection test for wheat leaf rust control; format: in vivo; conditions: foliar application to wheat (Triticum aestivum cv. Winterhawk), evaluated 10 days later
[3] = tested on: Fusarium virguliforme (Fv); experiment: In vitro pathogen growth inhibition assay, Fv; format: cell-based
Outline: as §2

Botrtyis cinerea (Bc) = experiment: In vitro pathogen growth inhibition assay, Bc; format: cell-based; conditions: 48 h
Outline: as §1

[4] = tested on: Phytophthora capsici (Pc); experiment: In vitro pathogen growth inhibition assay, Pc; format: cell-based; conditions: 48 h
Outline: as §2

[5] = tested on: Blumeria graminis f. sp. hordei; experiment: Foliar protection test for barley powdery mildew control; format: in vivo; conditions: foliar spray on Hordeum vulgare cv. Perry, inoculated 24 hours after treatment, evaluated 7 days later
Experimental: Plants (Hordeum vulgare cv. Perry) were grown for 6 days in 2-inch square pots containing Metromix 200 medium amended with fertilizer. […] After inoculation with the pathogen of Blumeria graminis f. sp. hordei, plants were kept at conditions of 20 to 22° C., 70% relative humidity, and 200 uM of light to facilitate infection and disease development. […] An atomizer was used for applying the solution onto both sides of the leaves until thoroughly wetted. […] At 24 hours after treatment, the plants were moved to a cooler chamber and inoculated by shaking well-colonized, untreated stock plants above the treated plants. This allowed producing a settling cloud of spores and resulting in uniform infection. Efficacy was evaluated in 7 days later by examining leaves for colonization and growth of mildew. Table 4 lists the results of barley powdery mildew control at a compound concentration of 10 ppm or lower.

Diplodia maydis (Dm) = experiment: In vitro pathogen growth inhibition assay, Dm; format: cell-based; conditions: Stenocarpella maydis, 48 h
Outline: as §2

[6] = tested on: Mycosphaerella graminicola (synthetic Septoria tritici); experiment: Foliar protection test for wheat septoria leaf blotch control; format: in vivo; conditions: foliar spray on Triticum aestivum cv. WinterHawk, inoculated 1 hour after treatment, evaluated 16 days later
Fusarium graminearum = format: in vivo; conditions: spray on flowering Triticum aestivum cv. Samson, inoculated 24 hours after treatment, evaluated 14 days later
Phakopsora pachyrhizi = experiment: Foliar protection test for Asian soybean rust control; format: in vivo; conditions: foliar application to soybean (Glycine max AG4832), percent disease area evaluated 14 days later
Sphaerotheca fuliginea = experiment: Foliar protection for cucumber powdery mildew control; format: in vivo; conditions: foliar spray on Cucumis sativus cv. Straight Eight, inoculated 24 hours after treatment, evaluated 7 days later
Experimental: Plants (Cucumis sativus cv. Straight Eight) were grown for 10 days in 2.5-inch square pots containing Metromix 200 medium amended with fertilizer. For propagation, plants were maintained in a growth chamber at conditions of 23 to 27° C., 16 hour light cycle, ambient humidity, and with sub-irrigation as needed. After inoculation with the pathogen of Sphaerotheca fuliginea, plants were kept at conditions of 23 to 27° C., 16 hour light cycle, 60% relative humidity, and with sub-irrigation as needed to facilitate infection and disease development. […] An atomizer was used for applying the solution onto both sides of the leaves until thoroughly wetted. […] At 24 hours after treatment, the plants were moved to a cooler chamber and inoculated by shaking well-colonized, untreated stock plants above the treated plants. This allowed producing a settling cloud of spores and resulting in uniform infection. Inoculated plants were kept near other sporulating stock plants to allow for infection of newly emerging leaves. Efficacy was evaluated in 7 days later by examining leaves for colonization and growth of mildew. Table 5 lists the results of cucumber powdery mildew control at a compound concentration of 10 ppm or lower.

[7] = ≥90% growth inhibition, 48 hours, vs 2% DMSO control, read-out: Compound Concentration (ppm) sufficient for ≥90% inhibition of St
[8] = ≥90% growth inhibition, 48 hours, vs 2% DMSO control, read-out: Compound Concentration (ppm) sufficient for ≥90% inhibition of Fm
[9] = ≥90% growth inhibition, 48 hours, vs 2% DMSO control, read-out: Compound Concentration (ppm) sufficient for ≥90% inhibition of Fv

With `COCCCO[C@@H](Cn1c(=O)n(C(C)(C)C(=O)NC(C)C)c(=O)c2c(C)c(-n3nccn3)sc21)c1cc(F)ccc1OC` [Compound I-084, (R)-2-(1-(2-(5-fluoro-2-methoxyphenyl)-2-(3-methoxypropoxy)ethyl)-5-methyl-2,4-dioxo-6-(2H-1,2,3-triazol-2-yl)-1,4-dihydrothieno[2,3-d]pyrimidin-3 (2H)-yl)-N-isopropyl-2-methylpropanamide] the IC90 ([1]; ≥90% inhibition, 48 hours vs 2% DMSO control, read-out: Compound Concentration (ppm) sufficient for ≥90% inhibition of growth, Cg) was 0.4 µg/mL (≈ 0.649 µM), the IC90 (Septoria tritici (St); ≥90% inhibition, 48 hours vs 2% DMSO control, read-out: Compound Concentration (ppm) sufficient for ≥90% inhibition of growth, St) was no less than 10 µg/mL and the IC90 ([2]; ≥90% inhibition, 48 hours vs 2% DMSO control, read-out: Compound Concentration (ppm) sufficient for ≥90% inhibition of growth, Fm) was 0.08 µg/mL (≈ 0.13 µM). The IC90 (Rhizoctonia solani (Rs); ≥90% inhibition, mycelial plugs, 48 hours vs 2% DMSO control, read-out: Compound Concentration (ppm) sufficient for ≥90% inhibition of growth, Rs) was 0.4 µg/mL (≈ 0.649 µM), the “Wheat Leaf Rust Control at a compound concentration of 10 ppm or lower” value (Puccinia triticina) was “A (from 70% to 84% control of wheat leaf rust)” and the IC90 ([3]; ≥90% inhibition, 48 hours vs 2% DMSO control, read-out: Compound Concentration (ppm) sufficient for ≥90% inhibition of growth, Fv) was 0.08 µg/mL (≈ 0.13 µM). The IC90 (Botrtyis cinerea (Bc); ≥90% inhibition, 48 hours vs 2% DMSO control, read-out: Compound Concentration (ppm) sufficient for ≥90% inhibition of growth, Bc) was 0.4 µg/mL (≈ 0.649 µM), the IC90 ([4]; ≥90% inhibition, 48 hours vs 2% DMSO control, read-out: Compound Concentration (ppm) sufficient for ≥90% inhibition of growth, Pc) was greater than 50 µg/mL and the “Barley Powdery Mildew Control at a compound concentration of 10 ppm or lower” value [5] was “AA (≥85% control of barley powdery mildew)”. For the same compound, the IC90 (Diplodia maydis (Dm); ≥90% inhibition, 48 hours vs 2% DMSO control, read-out: Compound Concentration (ppm) sufficient for ≥90% inhibition of growth, Dm) was 0.08 µg/mL (≈ 0.13 µM) and the “Septoria Leaf Blotch Control at a compound concentration of 25 ppm or lower” value [6] was “AA (≥85% control of wheat septoria leaf blotch)”.
In the case of `CCOC(=O)c1sc2c(c1C)c(=O)n([C@H](C)C(=O)NC(C)C)c(=O)n2C[C@H](OCCC#N)c1cc(F)ccc1OC` [Compound I-220, (R)-ethyl-1-(2-(2-cyanoethoxy)-2-(5-fluoro-2-methoxyphenyl)ethyl)-3-((R)-1-(isopropylamino)-1-oxopropan-2-yl)-5-methyl-2,4-dioxo-1,2,3,4-tetrahydrothieno[2,3-d]pyrimidine-6-carboxylate], the IC90 (Septoria tritici (St); [7]) is reported as greater than 50 µg/mL, the IC90 [2, 8] is reported as 0.08 µg/mL (≈ 0.136 µM) and the “Compound Concentration (ppm) sufficient for ≥90% inhibition of Rs” value (Rhizoctonia solani (Rs); ≥90% growth inhibition, mycelial plugs, 48 hours, vs 2% DMSO control) is reported as 0.08 ppm. For the same compound, the “Wheat Leaf Rust Control at a compound concentration of 10 ppm or lower” value (Puccinia triticina) was “C (from 25 to 49% control of wheat leaf rust)”, the “Wheat Fusarium Head Blight Control at a compound concentration of 25 ppm or lower” value (Fusarium graminearum) was “C (from 25 to 49% control of wheat fusarium head blight)” and the IC90 [3, 9] was 0.4 µg/mL (≈ 0.68 µM). The “Asian Soybean Rust Control at a compound concentration of 25 ppm or lower” value (Phakopsora pachyrhizi) was “B (from 50 to 69% control of Asian soybean rust)”, the “Cucumber Powdery Mildew Control at a compound concentration of 10 ppm or lower” value (Sphaerotheca fuliginea) was “AA (≥85% control of cucumber powdery mildew)” and the “Barley Powdery Mildew Control at a compound concentration of 10 ppm or lower” value [5] was “AA (≥85% control of barley powdery mildew)”. For the same compound, the “Septoria Leaf Blotch Control at a compound concentration of 25 ppm or lower” value [6] was “B (from 50 to 69% control of wheat septoria leaf blotch)”.
In the case of `CCOC(=O)c1ccc(F)cc1[C@H](Cn1c(=O)n(C(C)(C)C(=O)NC(C)C)c(=O)c2c(C)c(-n3nccn3)sc21)OCCC#N` [Compound I-335], the IC90 ([1]; ≥90% growth inhibition, 48 hours, vs 2% DMSO control, read-out: Compound Concentration (ppm) sufficient for ≥90% inhibition of Cg) is reported as 50 µg/mL (≈ 78.2 µM), the IC90 (Septoria tritici (St); [7]) is reported as greater than 50 µg/mL and the IC90 [2, 8] is reported as 2 µg/mL (≈ 3.13 µM). The IC90 (Rhizoctonia solani (Rs); ≥90% growth inhibition, mycelial plugs, 48 hours, vs 2% DMSO control, read-out: Compound Concentration (ppm) sufficient for ≥90% inhibition of Rs) was 10 µg/mL (≈ 15.6 µM), the IC90 [3, 9] was 2 µg/mL (≈ 3.13 µM) and the IC90 (Botrtyis cinerea (Bc); ≥90% growth inhibition, 48 hours, vs 2% DMSO control, read-out: Compound Concentration (ppm) sufficient for ≥90% inhibition of Bc) was 10 µg/mL (≈ 15.6 µM). For the same compound, the IC90 ([4]; ≥90% growth inhibition, 48 hours, vs 2% DMSO control, read-out: Compound Concentration (ppm) sufficient for ≥90% inhibition of Pc) was greater than 50 µg/mL and the IC90 (Diplodia maydis (Dm); ≥90% growth inhibition, 48 hours, vs 2% DMSO control, read-out: Compound Concentration (ppm) sufficient for ≥90% inhibition of Dm) was 50 µg/mL (≈ 78.2 µM).
Work on `Cc1c(-n2cccn2)sc2c1c(=O)n(C(C)(C)C(=O)NC(C)C)c(=O)n2CCc1cc(F)ccc1OCCC#N` [Compound I-336] yielded an IC90 ([1]; concentration sufficient to ≥90% inhibition of growth, 48 hours vs 2% DMSO control, read-out: Compound Concentration (ppm) for ≥90% inhibition, Cg) greater than 50 µg/mL, an IC90 (Septoria tritici (St); concentration sufficient to ≥90% inhibition of growth, 48 hours vs 2% DMSO control, read-out: Compound Concentration (ppm) for ≥90% inhibition, St) greater than 50 µg/mL and an IC90 ([2]; concentration sufficient to ≥90% inhibition of growth, 48 hours vs 2% DMSO control, read-out: Compound Concentration (ppm) for ≥90% inhibition, Fm) of 10 µg/mL (≈ 17.6 µM). The IC90 (Rhizoctonia solani (Rs); concentration sufficient to ≥90% inhibition of growth, 48 hours vs 2% DMSO control, read-out: Compound Concentration (ppm) for ≥90% inhibition, Rs) was greater than 50 µg/mL, the IC90 ([3]; concentration sufficient to ≥90% inhibition of growth, 48 hours vs 2% DMSO control, read-out: Compound Concentration (ppm) for ≥90% inhibition, Fv) was 10 µg/mL (≈ 17.6 µM) and the IC90 (Botrtyis cinerea (Bc); concentration sufficient to ≥90% inhibition of growth, 48 hours vs 2% DMSO control, read-out: Compound Concentration (ppm) for ≥90% inhibition, Bc) was 50 µg/mL (≈ 88.2 µM). It also gave an IC90 ([4]; concentration sufficient to ≥90% inhibition of growth, 48 hours vs 2% DMSO control, read-out: Compound Concentration (ppm) for ≥90% inhibition, Pc) greater than 50 µg/mL and an IC90 (Diplodia maydis (Dm); concentration sufficient to ≥90% inhibition of growth, 48 hours vs 2% DMSO control, read-out: Compound Concentration (ppm) for ≥90% inhibition, Dm) greater than 50 µg/mL.
